We go through eleven compounds from BindingDB's records for PubMed 8226867 (Synaptic Pharmaceutical, 1993).

The structures appear in SMILES notation. Where only a bound is given, the exact number is not on record here.

Sequence of 5-hydroxytryptamine receptor 6 (P50406 whole entry): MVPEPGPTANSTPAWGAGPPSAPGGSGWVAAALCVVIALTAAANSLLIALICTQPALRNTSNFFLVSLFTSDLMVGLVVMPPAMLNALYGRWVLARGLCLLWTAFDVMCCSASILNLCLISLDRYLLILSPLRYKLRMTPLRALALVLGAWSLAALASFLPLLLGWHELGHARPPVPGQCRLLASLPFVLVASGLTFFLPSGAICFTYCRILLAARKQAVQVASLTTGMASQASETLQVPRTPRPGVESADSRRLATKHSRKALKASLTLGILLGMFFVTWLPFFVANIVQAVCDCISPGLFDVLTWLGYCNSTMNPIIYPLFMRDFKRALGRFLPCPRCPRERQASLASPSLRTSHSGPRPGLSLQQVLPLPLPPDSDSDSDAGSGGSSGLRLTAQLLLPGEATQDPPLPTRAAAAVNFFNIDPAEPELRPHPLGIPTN
Sequence of 5-hydroxytryptamine receptor 4 (Rattus norvegicus, UniProt Q62758) (Q62758 whole entry): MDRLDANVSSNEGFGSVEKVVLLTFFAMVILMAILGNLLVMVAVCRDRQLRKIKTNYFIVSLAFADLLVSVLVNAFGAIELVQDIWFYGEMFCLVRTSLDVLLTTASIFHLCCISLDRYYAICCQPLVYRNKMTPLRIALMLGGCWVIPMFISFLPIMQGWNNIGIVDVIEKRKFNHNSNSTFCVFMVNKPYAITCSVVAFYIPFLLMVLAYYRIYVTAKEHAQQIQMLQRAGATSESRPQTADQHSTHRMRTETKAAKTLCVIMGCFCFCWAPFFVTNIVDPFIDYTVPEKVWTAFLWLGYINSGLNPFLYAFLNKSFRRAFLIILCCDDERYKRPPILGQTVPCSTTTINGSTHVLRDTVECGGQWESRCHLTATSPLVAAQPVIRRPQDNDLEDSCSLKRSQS

The first experiment has as its target 5-hydroxytryptamine receptor 6 (Homo sapiens, UniProt P50406).
`CN1C[C@H](CNC(=O)OCc2ccccc2)C[C@@H]2c3cccc4c3c(cn4C)C[C@H]21` [METERGOLINE] showed a Ki of 0.061 µM.

As to `NCCc1c[nH]c2ccc(C(N)=O)cc12` [[3H]-5-carboxamidotryptamine], the Ki was determined as 0.253 µM.

`CCN(CC)C(=O)[C@@H]1C=C2c3cccc4[nH]c(Br)c(c34)C[C@H]2N(C)C1` [LSD,2-Bromo] gave a Ki of 0.0171 µM.

`Cc1nc2sccn2c(=O)c1CCN1CCC(=C(c2ccc(F)cc2)c2ccc(F)cc2)CC1` returned a Ki of 0.016 µM.

The compound `CN1CC(C(=O)N[C@]2(C)O[C@@]3(O)C4CCCN4C(=O)[C@H](Cc4ccccc4)N3C2=O)CC2c3cccc4[nH]cc(c34)CC21` (stereo partly drawn) [7-Methyl-4,6,6a,7,8,9,10,10a-octahydro-indolo[4,3-fg]quinoline-9-carboxylic acid ((2R,5S,10bS)-5-benzyl-10b-hydroxy-2-methyl-3,6-dioxo-octahydro-oxazolo[3,2-a]pyrrolo[2,1-c]pyrazin-2-yl)-amide] displayed a Ki of 0.0054 µM.

The compound `CN1C[C@@H](NS(=O)(=O)N(C)C)C[C@@H]2c3cccc4c3c(cn4C)C[C@H]21` [MESULERGINE] showed a Ki of 1.72 µM.

`c1ccc2c(N3CCNCC3)cccc2c1` came in with a Ki of 0.104 µM.

On to `CC[C@@H](CO)NC(=O)[C@@H]1C=C2c3cccc4c3c(cn4C)C[C@H]2N(C)C1`, for which the Ki amounted to 0.372 µM.

For another experiment, the target named is 5-hydroxytryptamine receptor 4 (Mus musculus, UniProt P97288).
Sequence of 5-hydroxytryptamine receptor 4 (Mus musculus, UniProt P97288) (P97288 whole entry): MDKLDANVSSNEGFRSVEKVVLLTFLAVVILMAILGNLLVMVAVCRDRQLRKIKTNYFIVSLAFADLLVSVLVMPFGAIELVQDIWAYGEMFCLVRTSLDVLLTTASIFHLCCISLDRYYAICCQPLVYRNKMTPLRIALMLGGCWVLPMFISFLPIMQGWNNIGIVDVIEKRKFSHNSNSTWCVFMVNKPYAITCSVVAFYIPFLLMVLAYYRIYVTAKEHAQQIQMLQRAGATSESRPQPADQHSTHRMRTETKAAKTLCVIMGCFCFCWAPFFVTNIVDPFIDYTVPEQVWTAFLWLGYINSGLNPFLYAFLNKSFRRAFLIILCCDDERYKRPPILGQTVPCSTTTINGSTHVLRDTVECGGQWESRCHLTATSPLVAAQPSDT
Compound `NCCc1c[nH]c2ccccc12` [1H-indole-3-ethanamine] returned a Ki of over 10 µM.

The next experiment has as its target 5-hydroxytryptamine receptor 4 (Rattus norvegicus, UniProt Q62758).
In turn, `COc1ccc2[nH]cc(CCN)c2c1` [tryptamine, 5-Methoxy] returned a Ki of 0.316 µM.

Regarding `COc1cc(N)c(Cl)cc1C(=O)NC1CN2CCC1CC2` (stereo unspecified) [ZACOPRIDE,R], affinity was put at a Ki of 0.316 µM.

Usually Ki stands for a measure of affinity in units of concentration, obtained from inhibition or displacement.
